Series [1] in a line: Uptake of pyrrolizidine alkaloids into endophyte free Fescue plants after watering composition onto roots. It counts as in vivo. The settings on record: leaf sub-sample after 21 days; for Pyrrolizidine Alkaloid Content, Average: average of 5 endophyte free Fescue plants, Grinding Number 1 composition watered on roots; for Pyrrolizidine Alkaloid Content: individual endophyte free Fescue plants 1-5, 100 ml Grinding Number 1 composition watered on roots every second day. How it is done: (§1) Pesticidal composition from Grinding Number 1 of Example 1 was watered onto the roots of endophyte free Fescue and Ryegrass plants grown in a glasshouse under controlled conditions into silica sand filled pots. Control plants were included in the plant samples and were watered with nil endophyte ground extract containing no pesticidal composition. Trial plants were each watered with 100 ml of each composition every second day with nutrient watered on alternate days. After 21 days, a sub-sample of leaf material was analysed to determine the uptake of pesticidal composition into the plants tested.
(§2) The results shown below in Table 2 for endophyte free Fescue plants and Table 3 for endophyte free Ryegrass plants clearly indicate transfer of the measured pyrrolizidine alkaloid compounds from the composition and into the plants via their root system

The nature of series [2]: Uptake of pyrrolizidine alkaloids into endophyte free Ryegrass plants after watering composition onto roots. It counts as in vivo. The settings on record: leaf sub-sample after 21 days; for Pyrrolizidine Alkaloid Content, Average: average of 5 endophyte free Ryegrass plants, Grinding Number 1 composition watered on roots; for Pyrrolizidine Alkaloid Content: individual endophyte free Ryegrass plants 1-5, 100 ml Grinding Number 1 composition watered on roots every second day. How it is done:
as §1, §2

Series [3] in a line: Uptake of pyrrolizidine alkaloids into cabbage plants grown in silica sand. In kind it is in vivo, Cabbage brassica. The note with it: cabbage treated with composition of Grind Number 3 watered onto pots. How it is done:
Cabbage brassica were tested with the pesticidal composition of Grind Number 3 of Example 1 watered onto the pots in which the trial cabbage plants were grown in silica sand.

Values joined by “and” are separate entries in the source; they are usually repeats but may differ in a detail not shown here. Identical values can stand only once.

Take `CN(C=O)C1C2[C@@H]3CCN2C[C@H]1O3` (stereo partly drawn) [NFL, N-formylloline]: the “Pyrrolizidine Alkaloid Content, Average” value in series [1] is listed as 479 mg/kg or ppm; in series [2] it was 644 mg/kg or ppm. Moreover, the “Pyrrolizidine Alkaloid Content” value in series [1] is 405 mg/kg or ppm and 382 mg/kg or ppm and 648 mg/kg or ppm and 479 mg/kg or ppm and 482 mg/kg or ppm; in series [2], 352 mg/kg or ppm and 340 mg/kg or ppm and 1152 mg/kg or ppm and 697 mg/kg or ppm and 680 mg/kg or ppm; in series [3] it was 148 mg/kg or ppm.

Turning to `CC(=O)N(C)[C@@H]1[C@H]2[C@@H]3CCN2C[C@H]1O3` [NAL, N-acetylloline], the results for the “Pyrrolizidine Alkaloid Content, Average” value in series [1] and in series [2] were 75 mg/kg or ppm and 92 mg/kg or ppm, respectively. The “Pyrrolizidine Alkaloid Content” value was 56 mg/kg or ppm and 38 mg/kg or ppm and 119 mg/kg or ppm and 69 mg/kg or ppm and 95 mg/kg or ppm in series [1]; 40 mg/kg or ppm and 37 mg/kg or ppm and 214 mg/kg or ppm and 87 mg/kg or ppm and 84 mg/kg or ppm in series [2]; 6 mg/kg or ppm in series [3].

For the compound `CC(=O)N[C@H]1[C@H]2[C@@H]3CCN2C[C@H]1O3` [NANL, N-acetylnorloline], the “Pyrrolizidine Alkaloid Content, Average” value is on record as 0 mg/kg or ppm in series [1] and 14 mg/kg or ppm in series [2]. Besides, the “Pyrrolizidine Alkaloid Content” value is 0 mg/kg or ppm in series [1]; 0 mg/kg or ppm (3×) and 44 mg/kg or ppm and 27 mg/kg or ppm in series [2]; 0 mg/kg or ppm in series [3].

The record behind these values is patent US10149476B2, “Pesticidal plant extract containing loline derivatives” (GRASSLANZ TECHNOLOGY LTD, priority 2007, dated 2018).
